Experimental findings from ChEMBL document CHEMBL4507319 (2021) are described below.

For test [1], the target named is T1, Inhibitor of nuclear factor kappa-B kinase subunit epsilon (Homo sapiens) (UniProt Q14164).
T1 sequence (whole entry): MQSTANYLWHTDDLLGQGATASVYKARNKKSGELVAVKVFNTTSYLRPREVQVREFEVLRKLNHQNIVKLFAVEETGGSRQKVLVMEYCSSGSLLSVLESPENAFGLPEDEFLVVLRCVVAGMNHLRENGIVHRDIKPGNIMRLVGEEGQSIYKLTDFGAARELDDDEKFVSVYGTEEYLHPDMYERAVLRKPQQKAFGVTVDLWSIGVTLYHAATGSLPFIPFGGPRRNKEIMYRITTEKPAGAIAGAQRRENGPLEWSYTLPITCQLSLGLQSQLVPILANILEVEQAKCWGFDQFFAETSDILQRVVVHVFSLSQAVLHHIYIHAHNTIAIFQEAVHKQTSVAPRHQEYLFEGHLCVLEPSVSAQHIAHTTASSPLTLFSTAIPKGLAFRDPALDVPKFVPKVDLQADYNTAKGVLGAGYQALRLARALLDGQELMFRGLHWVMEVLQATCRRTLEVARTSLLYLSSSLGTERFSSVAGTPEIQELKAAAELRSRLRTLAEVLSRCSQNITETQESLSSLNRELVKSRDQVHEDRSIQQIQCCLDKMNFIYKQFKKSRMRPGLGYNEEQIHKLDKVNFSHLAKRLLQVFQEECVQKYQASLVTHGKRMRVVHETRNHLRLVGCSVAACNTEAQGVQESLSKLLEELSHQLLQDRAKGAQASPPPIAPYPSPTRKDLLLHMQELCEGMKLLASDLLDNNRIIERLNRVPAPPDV
As to the kind of experiment: IKKepsilon(h) Eurofins kinase panel. The note with it: Compound concentration 1.0 uM.

Test [2] has as its target T2, Serine/threonine-protein kinase 17B (Homo sapiens) (UniProt O94768).
T2 sequence (whole entry): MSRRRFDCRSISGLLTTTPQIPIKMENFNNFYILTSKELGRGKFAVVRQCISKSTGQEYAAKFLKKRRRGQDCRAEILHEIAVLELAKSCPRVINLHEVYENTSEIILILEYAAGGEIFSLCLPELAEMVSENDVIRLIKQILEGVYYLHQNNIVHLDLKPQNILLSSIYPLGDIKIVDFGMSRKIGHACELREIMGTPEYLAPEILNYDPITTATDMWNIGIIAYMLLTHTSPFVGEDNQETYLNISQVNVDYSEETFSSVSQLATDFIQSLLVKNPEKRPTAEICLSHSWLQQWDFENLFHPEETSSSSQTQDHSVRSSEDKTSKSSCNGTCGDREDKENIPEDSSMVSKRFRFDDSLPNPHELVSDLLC
As to the kind of experiment: DRAK2(h) Eurofins kinase panel. The note with it: Compound concentration 1.0 uM.

Test [3] addresses Dual specificity protein kinase CLK1 (Homo sapiens) (UniProt P49759). As to the kind of experiment: CLK1(h) Eurofins kinase panel. The following applies: Compound concentration 1.0 uM.
For test [4], the target named is T3, Serine/threonine-protein kinase TAO2 (Homo sapiens) (UniProt Q9UL54).
T3 sequence (whole entry): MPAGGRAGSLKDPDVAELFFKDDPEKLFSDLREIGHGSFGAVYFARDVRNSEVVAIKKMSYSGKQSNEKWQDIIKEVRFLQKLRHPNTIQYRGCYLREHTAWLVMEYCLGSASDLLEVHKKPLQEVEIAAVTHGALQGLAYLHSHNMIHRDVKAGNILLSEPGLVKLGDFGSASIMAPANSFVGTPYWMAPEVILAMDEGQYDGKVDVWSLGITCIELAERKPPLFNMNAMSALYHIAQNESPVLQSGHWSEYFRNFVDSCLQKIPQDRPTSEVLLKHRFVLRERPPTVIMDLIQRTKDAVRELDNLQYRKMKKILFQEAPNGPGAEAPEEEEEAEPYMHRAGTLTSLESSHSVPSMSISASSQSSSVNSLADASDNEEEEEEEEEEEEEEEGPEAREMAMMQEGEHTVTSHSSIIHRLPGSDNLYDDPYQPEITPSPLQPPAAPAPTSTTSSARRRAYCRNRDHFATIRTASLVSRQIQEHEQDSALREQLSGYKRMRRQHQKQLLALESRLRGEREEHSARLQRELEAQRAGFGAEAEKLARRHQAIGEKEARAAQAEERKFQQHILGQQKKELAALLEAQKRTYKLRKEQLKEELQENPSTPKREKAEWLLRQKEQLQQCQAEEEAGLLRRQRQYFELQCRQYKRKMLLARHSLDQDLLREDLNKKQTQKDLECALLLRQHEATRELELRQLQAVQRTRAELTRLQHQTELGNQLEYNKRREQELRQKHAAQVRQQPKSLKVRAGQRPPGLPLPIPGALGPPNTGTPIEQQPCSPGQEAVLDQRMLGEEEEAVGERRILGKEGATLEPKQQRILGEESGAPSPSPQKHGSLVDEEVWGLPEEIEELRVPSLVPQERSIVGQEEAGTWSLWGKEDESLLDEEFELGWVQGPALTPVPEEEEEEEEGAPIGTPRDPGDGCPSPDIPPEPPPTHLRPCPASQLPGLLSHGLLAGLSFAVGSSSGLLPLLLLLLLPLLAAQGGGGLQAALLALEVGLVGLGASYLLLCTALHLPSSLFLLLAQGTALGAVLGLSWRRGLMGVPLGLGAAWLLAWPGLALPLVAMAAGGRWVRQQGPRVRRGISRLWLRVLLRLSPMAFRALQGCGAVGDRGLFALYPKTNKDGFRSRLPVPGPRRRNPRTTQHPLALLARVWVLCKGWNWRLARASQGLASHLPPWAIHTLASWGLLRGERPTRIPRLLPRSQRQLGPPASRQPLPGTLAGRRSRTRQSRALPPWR
As to the kind of experiment: TAO2(h) Eurofins kinase panel. The following applies: Compound concentration 1.0 uM.

The test system of the next test is PANC-1. Briefly: PANC-1 cell line Proliferation assay. The format is functional, Homo sapiens. The following applies: time 3 day.
Test [5] addresses T4, Mitogen-activated protein kinase 12 (Homo sapiens) (UniProt P53778).
T4 sequence (whole entry): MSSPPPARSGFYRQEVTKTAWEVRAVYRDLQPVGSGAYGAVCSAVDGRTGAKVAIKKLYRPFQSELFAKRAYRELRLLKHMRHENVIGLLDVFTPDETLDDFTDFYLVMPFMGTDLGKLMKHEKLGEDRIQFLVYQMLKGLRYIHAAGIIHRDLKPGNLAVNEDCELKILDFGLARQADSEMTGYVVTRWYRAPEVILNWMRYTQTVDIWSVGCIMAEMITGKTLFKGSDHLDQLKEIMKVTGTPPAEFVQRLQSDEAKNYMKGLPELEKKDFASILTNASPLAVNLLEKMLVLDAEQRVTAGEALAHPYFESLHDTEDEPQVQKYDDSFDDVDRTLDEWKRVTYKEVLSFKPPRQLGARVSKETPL
Briefly: SAPK3(h) Eurofins kinase panel. The note with it: Compound concentration 1.0 uM.

In test [6] the target is Ribosomal protein S6 kinase alpha-4 (Homo sapiens) (UniProt O75676). The note with it: Compound concentration 1000.0 nM.
Chain of Ribosomal protein S6 kinase alpha-4 (Homo sapiens) (O75676 whole entry, looked up): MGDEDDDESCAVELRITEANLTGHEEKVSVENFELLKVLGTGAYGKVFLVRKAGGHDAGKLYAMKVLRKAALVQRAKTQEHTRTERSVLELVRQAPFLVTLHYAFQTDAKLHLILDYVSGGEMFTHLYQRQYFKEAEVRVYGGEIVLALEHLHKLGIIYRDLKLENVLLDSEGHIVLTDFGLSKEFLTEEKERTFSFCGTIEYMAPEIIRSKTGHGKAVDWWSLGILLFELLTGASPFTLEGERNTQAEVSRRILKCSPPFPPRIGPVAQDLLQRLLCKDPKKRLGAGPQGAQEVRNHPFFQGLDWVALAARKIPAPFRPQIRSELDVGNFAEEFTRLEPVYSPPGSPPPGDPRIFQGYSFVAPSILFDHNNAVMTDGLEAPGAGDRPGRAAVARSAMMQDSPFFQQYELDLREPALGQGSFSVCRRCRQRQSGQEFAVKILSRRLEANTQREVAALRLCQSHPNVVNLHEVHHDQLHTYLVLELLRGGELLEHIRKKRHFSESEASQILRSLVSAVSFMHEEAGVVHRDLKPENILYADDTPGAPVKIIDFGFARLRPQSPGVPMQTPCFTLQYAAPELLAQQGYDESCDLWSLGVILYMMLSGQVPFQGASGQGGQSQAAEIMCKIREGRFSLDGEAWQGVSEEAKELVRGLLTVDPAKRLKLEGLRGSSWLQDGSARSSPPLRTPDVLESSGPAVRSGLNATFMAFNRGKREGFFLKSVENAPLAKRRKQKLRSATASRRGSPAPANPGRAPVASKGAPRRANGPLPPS

Chain of Dual specificity protein kinase CLK1 (Homo sapiens) (P49759 whole entry, looked up): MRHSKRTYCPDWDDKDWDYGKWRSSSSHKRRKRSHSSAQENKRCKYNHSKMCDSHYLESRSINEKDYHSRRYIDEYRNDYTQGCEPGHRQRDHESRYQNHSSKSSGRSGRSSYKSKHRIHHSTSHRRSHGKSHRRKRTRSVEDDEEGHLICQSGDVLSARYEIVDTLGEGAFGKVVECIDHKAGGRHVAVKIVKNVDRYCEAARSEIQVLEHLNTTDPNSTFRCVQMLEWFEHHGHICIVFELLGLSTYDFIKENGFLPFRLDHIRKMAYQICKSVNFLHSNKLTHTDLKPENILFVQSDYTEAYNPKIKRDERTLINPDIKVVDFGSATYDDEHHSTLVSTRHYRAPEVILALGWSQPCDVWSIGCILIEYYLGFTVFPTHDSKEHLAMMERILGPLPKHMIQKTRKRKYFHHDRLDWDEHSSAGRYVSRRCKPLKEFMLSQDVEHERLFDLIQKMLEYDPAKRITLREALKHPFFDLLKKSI

On to `CCc1ccccc1C(=O)Nc1n[nH]c2c(C)c(F)c(C3C(C#N)=C(C)N(C)C(C)=C3C#N)cc12` [BAY-3827], for which the % residual kinase activity in test [1] is 108%; in test [2] it was 99%; in test [3] it was 108%; in test [4] it was 104%; in test [5], 106%. Moreover, the “Cell Proliferation IC50” value in the test with PANC-1 was 17.1 µM.

What is called residual activity is the activity still measured, relative to the control. Turning to `CC1=C(C#N)C(c2ccc3c(c2)c(NC(=O)c2ccccc2C)nn3C)C(C#N)=C(C)N1` [BAY-974], in test [6], the residual activity is 100%.
